Where two headings read alike, the source gives them in different places.
Tests used:
[1] = molecular target: T1, amylase derived from the Sulfolobus solfataricus strain KM1 (Saccharolobus solfataricus, UniProt Q55088); experiment: Substrate specificity of the purified amylase (hydrolyzing properties, TSK-gel Amide-80 HPLC); format: biochemical; conditions: for Liberated oligosaccharide / Production rate of mono- and disaccharides: 25.0 Units/ml enzyme, 10 mM substrate (amylopectin and soluble starch 2.8%); for Production rate of mono- and disaccharides: 1 Unit = 1 μmol per hour
T1 construct: endogenous in cells; host or cells: Sulfolobus solfataricus strain KM1 cells
T1 sequence (Q55088 1-559): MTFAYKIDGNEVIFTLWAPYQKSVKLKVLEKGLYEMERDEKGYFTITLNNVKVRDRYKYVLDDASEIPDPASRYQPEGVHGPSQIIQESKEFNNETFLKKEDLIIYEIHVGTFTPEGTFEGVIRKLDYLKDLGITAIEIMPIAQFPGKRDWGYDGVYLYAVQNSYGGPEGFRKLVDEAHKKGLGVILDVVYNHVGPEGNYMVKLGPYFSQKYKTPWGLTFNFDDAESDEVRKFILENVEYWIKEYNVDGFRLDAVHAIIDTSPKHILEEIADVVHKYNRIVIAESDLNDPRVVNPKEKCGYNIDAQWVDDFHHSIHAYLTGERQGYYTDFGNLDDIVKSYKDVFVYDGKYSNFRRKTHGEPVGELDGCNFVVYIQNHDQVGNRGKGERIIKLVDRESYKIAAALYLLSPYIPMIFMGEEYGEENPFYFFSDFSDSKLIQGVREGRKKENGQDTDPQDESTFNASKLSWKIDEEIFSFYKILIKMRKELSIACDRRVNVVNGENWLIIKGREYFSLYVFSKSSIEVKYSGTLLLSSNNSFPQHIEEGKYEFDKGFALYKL
Protocol: The hydrolyzing properties were analyzed by allowing 25.0 Units/ml (in terms of the enzymatic activity when maltotriosyltrehalose is used as the substrate) of the present purified enzyme to act on the various 10 mM substrates (except amylopectin and soluble starch were used as 2.8% solutions) listed in Table 16 below, and the hydrolyzed products were also analyzed.
Incidentally, each enzymatic activity in Table 16 is expressed with such a unit as 1 Unit equals the activity of liberating 1 μmol of each of the monosaccharide and disaccharide per hour.

[2] = molecular target: T2, swine pancreatic α-amylase (Sus scrofa, UniProt P00690); experiment: Hydrolysis of oligosaccharides by pancreatic α-amylase (comparative); format: biochemical; conditions: 1 Unit/ml α-amylase, 10 mM substrate, pH 6.9, 20° C.; for Production rate of di- and trisaccharides: 1 Unit = 1 umol per hour
T2 construct: purchased Sigma Co. A-6255
T2 sequence (P00690 16-511): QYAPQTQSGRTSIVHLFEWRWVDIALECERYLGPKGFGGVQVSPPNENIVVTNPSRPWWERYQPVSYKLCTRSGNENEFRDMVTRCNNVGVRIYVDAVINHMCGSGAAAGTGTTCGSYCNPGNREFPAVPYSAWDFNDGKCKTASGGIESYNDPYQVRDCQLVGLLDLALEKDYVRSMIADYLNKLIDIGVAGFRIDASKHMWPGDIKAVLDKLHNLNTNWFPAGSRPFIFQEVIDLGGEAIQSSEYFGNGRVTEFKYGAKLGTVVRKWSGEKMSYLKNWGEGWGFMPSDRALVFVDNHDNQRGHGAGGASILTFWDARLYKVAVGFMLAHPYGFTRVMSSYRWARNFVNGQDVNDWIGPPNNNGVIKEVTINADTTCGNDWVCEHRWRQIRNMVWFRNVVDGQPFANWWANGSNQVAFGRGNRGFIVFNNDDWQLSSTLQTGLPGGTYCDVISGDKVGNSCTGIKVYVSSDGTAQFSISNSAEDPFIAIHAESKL
Protocol: Swine pancreatic α-amylase is known to hydrolyze maltooligosaccharide from the reducing end by two or three sugar units [“Denpun.Kanren Toushitsu Kouso Jikken-hou” (“Experimental methods in enzymes for starch and relating saccharides”), p 135, written by Michinori Nakamura and Keiji Kainuma, published by Gakkai-Shuppan-Sentah]. Upon this, a swine pancreatic α-amylase (manufactured by Sigma Co., A-6255) was analyzed the hydrolyzing properties and the hydrolysates as a comparative example for the novel amylase of the present invention. […] The activity of producing disaccharide and trisaccharide was employed as the index of the enzymatic activity, and the analysis was performed by the TSK-gel Amide-80 HPLC analyzing method described in Example II-1.
Incidentally, the enzymatic activity values in Table 17 were expressed with such a unit as 1 Unit equals the activity of liberating 1 umol of each oligosaccharide per hour.

[3] = molecular target: T3, recombinant novel amylase (Saccharolobus solfataricus, UniProt Q55088); experiment: Substrate specificity of the recombinant novel amylase (crude enzyme solution); conditions: for Liberated oligosaccharide / Production rate of mono- and disaccharides: 35.2 Units/ml crude enzyme solution, 10 mM substrate (amylopectin and soluble starch 3.0%); for Production rate of mono- and disaccharides: 1 Unit = 1 μmol per hour
T3 sequence (Q55088 1-559): T1 sequence (Q55088 1-559)

[4] = tested on: transferase derived from the Sulfolobus solfataricus strain KM1; experiment: Influence of activators and inhibitors on glucosyltrehalose-producing activity; format: biochemical
[5] = molecular target: T1, amylase derived from the Sulfolobus solfataricus strain KM1; experiment: biochemical; format: biochemical

**Q.** How did the Liberated oligosaccharide [1] turn out when `OCC1OC(OC2OC(CO)C(OC3OC(CO)C(OC4OC(CO)C(O)C(O)C4O)C(O)C3O)C(O)C2O)C(O)C(O)C1O` [Maltosyltrehalose, α-D-maltotriosyl α-D-glucopyranoside] was run?
**A.** The Liberated oligosaccharide was “G2 + Trehalose”.

**Q.** And the “Production rate of mono- and disaccharides” value [1]?
**A.** Its value is 3.93 units/ml.

**Q.** And the Liberated oligosaccharide [2]?
**A.** Its Liberated oligosaccharide is “not decomposed”.

**Q.** What about the “Production rate of di- and trisaccharides” value [2] of the same molecule?
**A.** The value was 0 units/ml.

**Q.** What about the Liberated oligosaccharide [3] of the same molecule?
**A.** The Liberated oligosaccharide was “G2 + Trehalose”.

**Q.** What about the “Production rate of mono- and disaccharides” value [3] of the same molecule?
**A.** The value was 4.52 units/ml.

**Q.** How did the Residual activity [4] turn out when `O=C(O)CN(CCN(CC(=O)O)CC(=O)O)CC(=O)O` [EDTA] was run?
**A.** The Residual activity was 96.8%.

**Q.** And the Residual activity [5]?
**A.** The Residual activity was 106.3%.

**Q.** Which Residual activity ([4]; Concentration 5 mM) does the source give for `CCCCCCCCCCCCOS(=O)(=O)[O-].[Na+]` [SDS, sodium dodecyl sulfate] here?
**A.** The Residual activity was 0.0%.

**Q.** And the “Activating or inhibitory effect” value ([4]; added with the substrate)?
**A.** Its value is “inhibitory effects”.

**Q.** And the remaining activity at 5000 µM ([5]; Concentration 5 mM, read-out: Residual activity)?
**A.** Its remaining activity at 5000 µM is 0%.

**Q.** And the “Activating or inhibitory effect” value ([5]; added with the substrate)?
**A.** Its value is “inhibitory effects”.

**Q.** Which results are given for `OCC1OC(OC2OC(CO)C(OC3OC(CO)C(O)C(O)C3O)C(O)C2O)C(O)C(O)C1O` [Glucosyltrehalose, α-D-maltosyl α-D-glucopyranoside]?
**A.** Liberated oligosaccharide [1]: Glucose + Trehalose; Production rate of mono- and disaccharides [1]: 0.04 units/ml; Liberated oligosaccharide [2]: not decomposed; Production rate of di- and trisaccharides [2]: 0 units/ml; Liberated oligosaccharide [3]: Glucose + Trehalose; Production rate of mono- and disaccharides [3]: 0.01 units/ml

**Q.** Which results are given for `OC[C@H]1O[C@H](OC[C@H]2OC(O)[C@H](O)[C@@H](O)[C@@H]2O)[C@H](O)[C@@H](O)[C@@H]1O` (stereo partly drawn) [Isomaltose]?
**A.** Action of the enzyme on the substrate [1]: did not act; Liberated oligosaccharide [1]: not decomposed; Production rate of mono- and disaccharides [1]: 0 units/ml; Action of the enzyme on the substrate [3]: did not act; Liberated oligosaccharide [3]: not decomposed; Production rate of mono- and disaccharides [3]: 0 units/ml

**Q.** Which Liberated oligosaccharide [1] does the source give for `OC[C@H]1O[C@H](O[C@H]2O[C@H](CO)[C@@H](O[C@H]3O[C@H](CO)[C@@H](O[C@H]4O[C@H](CO)[C@@H](O[C@H]5O[C@H](CO)[C@@H](O[C@H]6O[C@H](CO)[C@@H](O)[C@H](O)[C@H]6O)[C@H](O)[C@H]5O)[C@H](O)[C@H]4O)[C@H](O)[C@H]3O)[C@H](O)[C@H]2O)[C@H](O)[C@@H](O)[C@@H]1O` [Maltotetraosyltrehalose] here?
**A.** The Liberated oligosaccharide was “G4 + Trehalose”.

**Q.** And the “Production rate of mono- and disaccharides” value [1]?
**A.** Its value is 27.3 units/ml.

**Q.** What about the Liberated oligosaccharide [2] of the same molecule?
**A.** The Liberated oligosaccharide was “G3 + Glucosyltrehalose”.

**Q.** And the “Production rate of di- and trisaccharides” value [2]?
**A.** Its value is 2.57 units/ml.

**Q.** `OC[C@H]1O[C@H](O[C@H]2O[C@H](CO)[C@@H](O)[C@H](O)[C@H]2O)[C@H](O)[C@@H](O)[C@@H]1O` [α,α-Trehalose, α,α-trehalose] was tested. Which Residual activity ([4]; Concentration 0.5 mM) did it give?
**A.** The Residual activity was 107.8%.

**Q.** And the remaining activity at 500 µM ([5]; Concentration 0.5 mM, read-out: Residual activity)?
**A.** The remaining activity at 500 µM was 98.2%.

**Q.** What about the “Action of the enzyme on the substrate” value [1] of the same molecule?
**A.** The value was “did not act”.

**Q.** And the Liberated oligosaccharide [1]?
**A.** Its Liberated oligosaccharide is “not decomposed”.

**Q.** And the “Production rate of mono- and disaccharides” value [1]?
**A.** Its value is 0 units/ml.

**Q.** And the “Action of the enzyme on the substrate” value [3]?
**A.** The value was “did not act”.

**Q.** And the Liberated oligosaccharide [3]?
**A.** The Liberated oligosaccharide was “not decomposed”.

**Q.** And the “Production rate of mono- and disaccharides” value [3]?
**A.** Its value is 0 units/ml.

**Q.** Which results are given for `OC[C@H]1O[C@H](O[C@H]2O[C@H](CO)[C@@H](O[C@H]3O[C@H](CO)[C@@H](O[C@H]4O[C@H](CO)[C@@H](O[C@H]5O[C@H](CO)[C@@H](O[C@H]6O[C@H](CO)[C@@H](O[C@H]7O[C@H](CO)[C@@H](O)[C@H](O)[C@H]7O)[C@H](O)[C@H]6O)[C@H](O)[C@H]5O)[C@H](O)[C@H]4O)[C@H](O)[C@H]3O)[C@H](O)[C@H]2O)[C@H](O)[C@@H](O)[C@@H]1O` [Maltopentaosyltrehalose]?
**A.** Liberated oligosaccharide [1]: G5 + Trehalose; Production rate of mono- and disaccharides [1]: 25.5 units/ml; Liberated oligosaccharide [2]: G3 + Maltosyltrehalose; Production rate of di- and trisaccharides [2]: 4.36 units/ml

**Q.** Which Residual activity ([4]; Concentration 5 mM) does the source give for `O=[N+]([O-])[O-].[Ag+]` [AgNO3] here?
**A.** Its Residual activity is 121.0%.

**Q.** And the Residual activity ([5]; Concentration 5 mM)?
**A.** The Residual activity was 105.7%.

From patent US6391595B1, “Transferase and amylase, process for producing the enzymes, use thereof, and gene coding for the same” (Kirin Beer Kabushiki Kaisha, priority 1994, dated 2002)
